{"source": "patent US8124357B2", "about": "(priority 2005, dated 2012)", "test_system": "Neuro-2A cells", "format": "cell-based"}
{"smiles": "CC1=C(/C=C/C(C)=C/C=C/C(C)=C/C(=O)O)C(C)(C)CCC1", "note": "[all trans retinoic acid, All Trans-Retinoic acid]", "values": [{"measurement": "BoNT/A SNAP25197-cleavage product (uptake of BoNT/A) after differentiation reagent", "result": "increase"}]}
